Earlier results on one compound are cited in patent US6635288B2, “Composition for suppressing cellular fibrousing and method for preparing an extract from loquat seeds” (Kochi Medical School, priority 2000, dated 2003).

The series concerns rats. To be noted: Carter et al., Biochem. Pharmacol. 29, 301 (1980).

As for `N#C[C@H](O[C@@H]1O[C@H](CO[C@@H]2O[C@H](CO)[C@@H](O)[C@H](O)[C@H]2O)[C@@H](O)[C@H](O)[C@H]1O)c1ccccc1` [amygdalin], the lethal dose is on record as 600 mg.
